Reference: patent US20040109845A1, “Method for inhibiting articular cartilage matrix calcification” (priority 2001, published 2004)
“Also recorded” adds a separate entry of the source.

How the values were obtained:
[1] = tested on: TGase activity (tTGase and Factor XIIIa) in meniscal cells; test: TGase activity in cultured knee meniscal cells (BP incorporation into N,N-dimethylcasein); format: cell-based, human; settings: meniscal cells, 72 hrs, IL-1 or TNFα 10 ng/ml; NMMA 10 μM or A20 transfection
Method: Meniscal cells were maintained in DMEM high glucose and supplemented with 10% FCS, 1% L-glutamine, 100 units/ml Penicillin and 50 μg/ml Streptomycin (Omega Scientific, Tarzana, Calif.) and cultured at 37° C. with 5% CO2. In monolayer cell culture studies involving stimulation by TGFE[…] or IL-1, the cells were placed in DMEM high glucose containing 1% FCS, 1% L-glutamine, 100 units/ml Penicillin and 50 μg/ml Streptomycin. In all other studies, the cells were cultured in complete medium (as described above). Only primary or first passage meniscal cells were studied.
TGase activity was measured by modifications to a previously described method (35). Specifically, we coated 96 well ImmunoModule plates (Nunc, Rochester, N.Y.) with 200 μl of 20 mg/ml N,N-dimethylcasein for 1 hr at 23° C. The N,N-dimethylcasein was removed and nonspecific protein binding was blocked by adding 3% BSA in 100 mM Tris, pH 8.5, 150 mM NaCl, 0.05% Tween-20 (TBST) to each well for an additional 1 hr at 23° C. Then, aliquots of 5 μg of total cellular protein from meniscal or TC28 cells that had been lysed and sonicated (in 5 mM Tris HCl, 0.25 M sucrose, 0.2 mM MgSO4, 2 mM DTT, 0.4 mM PMSF, 0.4% Triton X100, pH 7.5), were added to the plate in triplicate. To measure TGase in extracts of whole menisci, 50 mg dry weight of tissue from the central zone of each medial meniscus was used as the source (after solubilization and sonication) for aliquots of 5 μg of soluble protein. Fifty μl of solution A (100 mM Tris, pH 8.5 and 20 mM CaCl2) was added to all samples for TGase assay, followed by the addition of 50 μl of solution B (100 mM Tris, pH 8.5, 40 mM DTT and freshly added 2 mM 5-(Biotinamido) pentylamine (BP)). The plates were incubated for 1 hr at 37° C. The wells were washed once with TBST containing 1 mM EDTA and then three times with TBST. One hundred μl of a 1:500 dilution of streptavidin-AP in 3% BSA/TBST was added to each well for 1 hr at 23° C. The wells were washed twice with TBST, and 200 μl of solution C (100 mM Tris, pH 9.8, mM NaCl, 5 mM MgCl2, 1 mg/ml of freshly added p-nitrophenylphosphate) was added to each well. Readings at OD410 were taken over 15 minutes. Purified guinea pig liver TGase (Sigma) was used to prepare a standard curve. TGase activity was designated as the amount of BP incorporated into casein (per μg cellular DNA, determined chromogenically following precipitation in perchlorate (28), or, where indicated, per μg protein, determined as previously described (28)).
To directly induce expression of each TGase in meniscal cells, 5×10^5 primary cells were plated in 60 mm dishes and allowed to adhere overnight. We modified (28) the manufacturer's protocol for the Lipofectamine Plus kit (Life Technologies, Grand Island, N.Y.). To optimize the transfection of meniscal cells, we added 2.0 ml of serum-free DMEM/F12 containing 0.00015% digitonin to washed cells and incubated for 3 min at 23° C. Then, media was removed, and cells transfected at 37° C. for 7 hrs, followed by removal of the media and addition of complete DMEM high glucose medium. Transfection of each TGase into TC28 cells was done by the same procedure, with the exception that the digitonin permeabilization step was omitted.

[2] = tested on: NO release by meniscal cells; test: NO release by cultured meniscal cells (Greiss reaction); format: cell-based, human; settings: 72 hrs, IL-1 or TNFα 10 ng/ml, NMMA 10 μM or A20 transfection
Method: NO release by 3×10^5 meniscal cells, which were plated and stimulated with TNFα (10 ng/ml) or IL-1 (10 ng/ml), with or without 10 μM NMMA (FIG. 8A), for 72 hrs was studied. Conditioned media were collected and 50 μl aliquots analyzed for NO release using the Greiss Reaction, with results expressed as μmoles released per μg DNA. […] After 72 hrs of incubation with TNFα or IL-1, the conditioned media were collected from the cultured, transfected cells and analyzed in triplicate for NO release, as above. Data pooled from 4 normal donors studied in triplicate for FIGS. 8A and 8B. *p<0.05.
PPi was determined by differential adsorption on activated charcoal of UDP-D-[6-^3H] glucose (Amersham, Chicago, Ill.) from the reaction product 6-phospho [6-^3H] gluconate (28). Units of NTPPPH and AP were designated as micromoles of substrate hydrolyzed per hour (per μg DNA in each sample) (28). NO release by cultured meniscal cells was measured using the Greiss reaction (33). Concentrations or specific activities of PPi, NTPPPH, and AP were equalized for cellular DNA concentrations in each well.

For `CNC(=N)NCCC[C@H](N)C(=O)O` [NMMA, reference compound], the “Effect on IL-1 and TNFα-induced TGase activity” value [1] was “blocked the ability of both IL-1 and TNFα to induce TGase activity; also recorded: attenuated LL-1 and TNFα-induced TGase activity” and the “Effect on IL-1 and TNFα-induced NO release” value [2] was “attenuated IL-1 and TNFα-induced NO release; also recorded: suppresses IL-1 and TNFα-induced NO release”.
